For data set [1] the following is noted: cited from earlier work; for LogK, Mg: Table 1, K=[ML]/[M][L].
The conditions of data set [2]: cited from earlier work; for LogK, Zn: Table 1, K=[ML]/[M][L].
For data set [3] the following is noted: cited from earlier work; for LogK, Al: Table 1, K=[ML]/[M][L].
For data set [4] the following is noted: cited from earlier work; for LogK, Ca: Table 1, K=[ML]/[M][L].
The conditions of data set [5]: cited from earlier work; for LogK, Co: Table 1, K=[ML]/[M][L].
For data set [6] the following is noted: cited from earlier work; for LogK, Fe: Table 1, K=[ML]/[M][L].
For data set [7] the following is noted: cited from earlier work; for LogK, Cu: K=[ML]/[M][L].
The nature of data set [8]: Residual metals in post-centrifugation pellets of brain homogenates (ICP-AES). Format: biochemical, human. As to conditions: Table 6.
For data set [9], the system named is Aβ deposits of AD-affected brain. Nature of the data set: Extraction (solubilization) of Aβ from post-mortem AD brain tissue homogenates, western blot densitometry. Format: biochemical, human. As to the method: Identical regions of frontal cortex (0.5 g) from post-mortem brains of individuals with AD, as well as non-AD conditions, were homogenized in TBS, […] ±metal chelators.
0.5 g of prefrontal cortex was dissected and homogenized in PBS ±chelator as indicated. The homogenate was then centrifuged (100,000 g) and the supernatant removed, and a sample taken for western blot assay using anti-Aβ specific antibodies after Tricine PAGE. Densitometry was performed against synthetic peptide standards.
Densitometry of Aβ western blots (FIGS. 19A-19C) was performed for a series of 6 AD brain samples homogenized in the presence of chelators as indicated.
Next the ability of clioquinol to extract Aβ deposits from human brain was examined. […] Fragments of prefrontal cortex from individual post-mortem samples with the histopathological diagnosis of AD were homogenized in PBS, pH 7.4, and then pelleted after centrifugation. The pellets were then washed with agitation twice for 30 minutes, 4° C., with PBS or PBS containing clioquinol (100% =0.8 μM clioquinol). The suspension was then pelleted (10,000 g for 30 minutes) and the supernatant removed (S1) for western blot analysis using Aβ-specific antibodies (illustrated). The pellet was treated a second time in this experiment with agitation and centrifugation, and the second supernatant (S2) analysed.
Soluble Aβ (ng/g tissue) was determined as described. Total Aβ was determined following formic acid extraction of otherwise untreated tissue.
Suitable quantities of gray matter from each subject were minced to serve as pools of homogenous tissue. […] To obtain the soluble fraction, the homogenates were centrifuged at 100,000× g for 30 min (Beckman J180, Beckman instruments, Fullerton, California) and the supernatant collected in 1 ml aliquots and stored on ice or immediately frozen at −70° C. In each experiment, all protein was precipitated from 1 ml of supernatant from each treatment group using 1:5 ice cold 10% trichloracetic acid and pelleted in a bench top microfuge (Heraeus, Osteroder, Germany) at 10,000× g. The remaining pellet was frozen at −70° C.
Precipitated protein was subjected to SDS polyacrylamide gel electrophoresis (SDS-PAGE) on Novex pre-cast 10-20% Tris-Tricine gels followed by Western transfer onto 0.2 μm nitrocellulose membrane (Biorad, Hercules, Calif.). […] Each gel included two or more lanes containing known quantities of synthetic Aβ which served as internal reference standards. Blot images were captured by a Relisys scanner with transparency adapter (Teco Information Systems, Taiwan, ROC) and densitometry conducted using the NIH Image 1.6 program (National Institutes for Health, USA. Modified for PC by Scion Corporation, Frederick, Md.), calibrated using a step diffusion chart. For quantitation of Aβ in brain extracts, the internal reference standards of synthetic Aβ were utilized to produce standard curves from which values were interpolated.

Several values for one entry are separate records, joined by “and”; a condition that tells them apart may be missing. Identical values can stand only once. Entries after “also recorded” stand apart in the source; their conditions may differ. Like-named read-outs stand apart in the source and are kept apart here.

As for `c1ccc(-c2ccnc3c2ccc2c(-c4ccccc4)ccnc23)cc1` [Bathophenanthroline], the “LogK, Mg” value in data set [1] is listed as 0. Further, the “LogK, Zn” value in data set [2] was 6.9. Further, the “LogK, Al” value in [3] was 0. Moreover, the “LogK, Ca” value in [4] is on record as 0. Besides, in data set [5], the “LogK, Co” value is reported as 0. Also, in [6], the “LogK, Fe” value is given as 5.6. Moreover, the “LogK, Cu” value in data set [7] (Table 1) was 8.8.

Consider `O=C(O)CN(CCN(CC(=O)O)CC(=O)O)CCN(CC(=O)O)CC(=O)O` [DTPA, diethylenetriaminopenta acetic acid], for which the log stability constant in data set [7] (FIG. 34C legend, metal not given, Cu^2+ implied) is given as 21.1.

For the compound `O=C(O)CN(CCOCCOCCN(CC(=O)O)CC(=O)O)CC(=O)O` [EGTA], the “LogK, Mg” value in [1] is recorded as 5.3. In data set [1] (Table 5, NIST database), the “Stability constant logK10, Mg” value was 5.28. Further, the “LogK, Zn” value in data set [2] is reported as 12.6. In [2] (Table 5, NIST database), the “Stability constant logK10, Zn” value is given as 12.6. In data set [3], the “LogK, Al” value is 13.9. For the same compound, in data set [3] (Table 5, NIST database), the “Stability constant logK10, Al” value is 13.9. In addition, the “LogK, Ca” value in data set [4] is 10.9. In addition, the “Stability constant logK10, Ca” value in [4] (Table 5, NIST database) is reported as 10.86. In addition, the “Residual Al in extracted pellet” value amounted to 43 mg/kg in data set [8] (chelator 0.001 mM); 73 mg/kg in [8] (chelator 0.004 mM); 61 mg/kg in data set [8] (chelator 0.01 mM); 104 mg/kg in data set [8] (chelator 0.04 mM); 62 mg/kg in data set [8] (chelator 2.0 mM); 27 mg/kg in [8] (chelator 5.0 mM). The “Residual Ca in extracted pellet” value in data set [8] (chelator 0.001 mM) came out at 862 mg/kg; in data set [8] (chelator 0.004 mM), 795 mg/kg; in [8] (chelator 0.01 mM) it was 675 mg/kg; in [8] (chelator 0.04 mM), 1402 mg/kg; in data set [8] (chelator 2.0 mM), 519 mg/kg; in data set [8] (chelator 5.0 mM) it was 455 mg/kg. The “Residual Cu in extracted pellet” value in [8] (chelator 0.001 mM) amounted to 12 mg/kg; in data set [8] (chelator 0.004 mM), 11 mg/kg; in data set [8] (chelator 0.01 mM), 13 mg/kg; in data set [8] (chelator 0.04 mM), 13 mg/kg; in data set [8] (chelator 2.0 mM), 13 mg/kg; in data set [8] (chelator 5.0 mM), 12 mg/kg. For the same compound, the “Residual Fe in extracted pellet” value in [8] (chelator 0.001 mM) was 281 mg/kg; in data set [8] (chelator 0.004 mM), 247 mg/kg; in data set [8] (chelator 0.01 mM), 272 mg/kg; in data set [8] (chelator 0.04 mM), 438 mg/kg; in data set [8] (chelator 2.0 mM) it was 238 mg/kg; in data set [8] (chelator 5.0 mM), 230 mg/kg. Besides, the “Residual Mg in extracted pellet” value in [8] (chelator 0.001 mM) turned out to be 237 mg/kg; in [8] (chelator 0.004 mM), 228 mg/kg; in [8] (chelator 0.01 mM), 213 mg/kg; in [8] (chelator 0.04 mM), 247 mg/kg; in [8] (chelator 2.0 mM) it was 191 mg/kg; in data set [8] (chelator 5.0 mM), 168 mg/kg. The “Residual Zn in extracted pellet” value in data set [8] (chelator 0.001 mM) was determined as 49 mg/kg; in data set [8] (chelator 0.004 mM), 53 mg/kg; in [8] (chelator 0.01 mM), 54 mg/kg; in data set [8] (chelator 0.04 mM), 71 mg/kg; in data set [8] (chelator 2.0 mM), 27 mg/kg; in [8] (chelator 5.0 mM), 18 mg/kg. The “LogK, Co” value in data set [5] was 12.4. Besides, the “Stability constant logK10, Co” value in data set [5] (Table 5, NIST database) is reported as 12.35. Besides, the “Effect of Chelators upon extraction of Aβ (% change from control)” value was determined as 207% in data set [9] (0.1 mM chelator, mean n = 6 AD brain samples, above PBS extraction alone) and 46% in data set [9] (2.0 mM chelator, mean n = 6 AD brain samples, above PBS extraction alone). Further, in data set [9] (EGTA 2 mM), the “Aβ signal versus PBS control” value is “virtually abolished the signal for Aβ; also recorded: diminution in Aβ signal”. Moreover, in data set [9] (neutral saline buffer, TPEN 5 μM), the “efficiency in extracting Aβ” value was “less efficient”. Further, in [6], the “LogK, Fe” value is on record as 11.8. Besides, the “Stability constant logK10, Fe” value in data set [6] (Table 5, NIST database) is listed as 11.8. In addition, in data set [7] (Table 1), the “LogK, Cu” value is listed as 17.6. Further, the “Stability constant logK10, Cu” value in [7] (Table 5, NIST database) is reported as 17.57.

For the compound `CC(C)(S)[C@@H](N)C(=O)O` [Penicillamine], in data set [1], the “LogK, Mg” value is 0. Moreover, the “LogK, Zn” value in data set [2] is 10.2. The “LogK, Al” value in data set [3] was 0. Further, the “LogK, Ca” value in data set [4] is listed as 0. For the same compound, the “LogK, Co” value in data set [5] is recorded as 0. The “LogK, Fe” value in [6] was 0. Besides, the “LogK, Cu” value in data set [7] (Table 1) is reported as 18.2.

In the case of bathocuproinedisulfonic acid [BC], the “LogK, Mg” value in data set [1] is 0. Besides, in [2], the “LogK, Zn” value was 4.1. In data set [3], the “LogK, Al” value is recorded as 0. Besides, in [4], the “LogK, Ca” value is given as 0. For the same compound, the “LogK, Co” value in data set [5] is recorded as 4.2. Further, in [9], the “Effect of Chelators upon extraction of Aβ (% change from control)” value was 301% and 400%; the “efficiency in extracting Aβ” value is recorded as “highly efficient”. Also, the “LogK, Fe” value in data set [6] was 0. Also, the “LogK, Cu (Cu^+)” value in [7] (Table 1, value for Cu^+) is 19.1.

(Values after patent publication US20020082273A1, “Agents for use in the treatment of alzheimer's disease” (priority 1998, published 2002).)
